Experimental findings from patent US20230248833A1, “COMPOUND HAVING BTK KINASE DEGRADING ACTIVITY, AND PREPARATION METHOD AND PHARMACEUTICAL USE THEREFOR” (SICHUAN HAISCO PHARMACEUTICAL CO., LTD., priority 2020, published 2023) are described below.

The test system of one series is Mino cells. Nature of the series: Inhibition of cell proliferation, Mino cells (Cell Viability Assay, 72 h). In kind it is cell-based, human. The settings on record: Homo sapiens, MINO, 72 h. On the procedure:
(§1) SU-DHL-4, Mino, and SU-DHL-6 cells, in the culture medium of RPMI1640+10% FBS, were cultured in an incubator at 37° C. under 5% CO2. Cells were plated in a 96-well plate. Specifically, SU-DHL-4 cells were at 20000/well, Mino and SU-DHL-6 cells were at 5000/well, with 90 μL/well. 10 μL of the compounds at different concentrations were added to each well. There were 3 replicate wells for each concentration, and the last column, added with DMSO, was used as a vehicle control group. The cultures were continued for 72 hours at 37° C. under 5% CO2. After 72 hours, 100 μL of detection reagent (Cell Viability Assay, Promega, G7573) was added to each well, and the cultures were uniformly mixed for 2 minutes, and incubated at room temperature for 10 minutes. The […] signal value was measured with a microplate reader (PHERAstar FSX). The IC50 value of the compound on cell proliferation inhibition was calculated using origin9.2 software, and the inhibition rate at the highest concentration of the compound (Max inhi.%) was calculated according to formula (1).
(§2) Max inhi.%=(1−T72administration/T72vehicle)×100 Formula (1).

A further series deals with SU-DHL-6 cells. Nature of the series: Inhibition of cell proliferation, SU-DHL-6 cells (Cell Viability Assay, 72 h). In kind it is cell-based, human. The settings on record: Homo sapiens, SU-DHL-6, 72 h. On the procedure: as §1, §2
A short description of series [1]: Pharmacokinetic experiment in rats. The format is in vivo. The settings on record: male, SD, rat, po, plasma, single dose. How it is done: Experimental objective: In this experiment, a single dose of each test compound was administered to SD rats intravenously and intragastrically, the concentrations of the test compound in plasma of rats were measured, and the pharmacokinetic characteristics and bioavailability of the test compound in rats were evaluated.
Experimental animals: Male SD rats, about 200 g, 6-8 weeks old, 6 rats/compound. Rats were purchased from Hunan SJA Laboratory Animal Co., Ltd, with the laboratory animal production license number of SCXK (Xiang) 2019-004.
Experimental method: On the day of the experiment, 6 SD rats were randomly grouped according to their body weight. The animals were fasted with water available for 12 to 14 hours one day before the administration of a test compound, and were fed 4 hours after the administration.
Before and after the administration, […] of blood was taken from the orbit of the rats under isoflurane anesthesia, and placed in an EDTAK2 centrifuge tube. Centrifugation was carried out at 5000 rpm at 4° C. for 10 min, and the plasma was collected.
Time points for sample collection in G1&G2 groups comprise
Before analysis and detection, all samples were stored at −80° C. The samples were detected by HPLC-MS/MS.

The target of series [2] is T1, hERG potassium ion channel (Homo sapiens, UniProt Q12809).
T1 construct: expressed in transfected cells
T1 sequence (Q12809 whole entry): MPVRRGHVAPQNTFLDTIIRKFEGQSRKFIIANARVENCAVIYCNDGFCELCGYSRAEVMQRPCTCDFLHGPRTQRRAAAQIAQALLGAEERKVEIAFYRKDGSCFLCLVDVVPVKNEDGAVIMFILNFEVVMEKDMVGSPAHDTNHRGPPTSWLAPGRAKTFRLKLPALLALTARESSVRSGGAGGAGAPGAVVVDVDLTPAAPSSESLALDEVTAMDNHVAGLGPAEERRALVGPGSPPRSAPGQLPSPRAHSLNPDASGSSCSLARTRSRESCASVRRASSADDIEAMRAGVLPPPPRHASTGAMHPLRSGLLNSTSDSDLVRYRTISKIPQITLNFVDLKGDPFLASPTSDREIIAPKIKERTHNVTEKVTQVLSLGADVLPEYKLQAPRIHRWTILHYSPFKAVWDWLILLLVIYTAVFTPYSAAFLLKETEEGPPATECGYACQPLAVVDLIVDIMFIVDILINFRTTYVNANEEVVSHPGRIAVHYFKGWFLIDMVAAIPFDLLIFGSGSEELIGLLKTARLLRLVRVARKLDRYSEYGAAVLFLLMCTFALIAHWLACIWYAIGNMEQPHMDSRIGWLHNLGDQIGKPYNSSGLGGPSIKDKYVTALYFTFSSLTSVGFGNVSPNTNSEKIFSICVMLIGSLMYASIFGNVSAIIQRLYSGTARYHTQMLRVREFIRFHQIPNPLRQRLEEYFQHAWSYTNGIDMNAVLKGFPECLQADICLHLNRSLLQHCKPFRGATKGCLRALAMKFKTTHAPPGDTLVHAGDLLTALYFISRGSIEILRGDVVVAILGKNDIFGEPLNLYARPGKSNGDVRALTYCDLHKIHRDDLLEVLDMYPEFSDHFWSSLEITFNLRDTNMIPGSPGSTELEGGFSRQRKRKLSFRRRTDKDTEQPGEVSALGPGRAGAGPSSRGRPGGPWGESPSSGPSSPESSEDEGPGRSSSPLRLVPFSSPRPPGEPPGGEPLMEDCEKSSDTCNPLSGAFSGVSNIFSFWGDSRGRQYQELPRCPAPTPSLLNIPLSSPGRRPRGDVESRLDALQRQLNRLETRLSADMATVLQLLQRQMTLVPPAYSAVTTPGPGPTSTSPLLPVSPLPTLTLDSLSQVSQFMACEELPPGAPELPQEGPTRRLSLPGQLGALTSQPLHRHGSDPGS
Kind of series: Effect on hERG potassium ion channel, manual patch-clamp in CHO cells. The format is cell-based. The settings on record: CHO cells stably expressing hERG, whole cell patch-clamp, room temperature; read-out: IC50 value of inhibitory effect on hERG potassium channel current. An excerpt:
Experimental platform: electrophysiological manual patch-clamp system
Cell line: Chinese hamster ovary (CHO) cells stably expressing hERG potassium ion channel
Experimental method: In CHO (Chinese Hamster Ovary) cells stably expressing hERG potassium channel, whole cell patch-clamp technique was used to recorded hERG potassium channel current at room temperature. The glass microelectrode is made of a glass electrode blank (BF150-86-10, Sutter) by a puller. The tip resistance after filling the liquid in the electrode is about 2-5 MQ. The glass microelectrode can be connected to the patch-clamp amplifier by inserting the glass microelectrode into an amplifier probe. The clamping voltage and data recording are controlled and recorded by the pClamp 10 software through a computer. The sampling frequency is 10 kHz, and the filtering frequency is 2 kHz. […]
Data analysis processing was carried out by using pClamp 10, GraphPad Prism 5 and Excel software. The inhibition degree of hERG potassium current (peak value of hERG tail current induced at −50 mV) at different compound concentrations was calculated by the following formula: […]
Compound IC50 was calculated using GraphPad Prism 5 software by fitting according to the following equation: […]

The structures appear in SMILES notation.

Take `Nc1ncnc2c1c(-c1ccc(Oc3ccccc3)cc1)nn2[C@H]1CCN(C2CN(CC3(F)CN(c4cc5c(cc4F)C(=O)N(C4CCC(=O)NC4=O)C5=O)C3)C2)C[C@H]1F` (stereo partly drawn) [Compound 113, 5-(3-((3-((3R,4S)-4-(4-amino-3-(4-phenoxyphenyl)-1H-pyrazolo[3,4-d]pyrimidin-1-yl)-3-fluoropiperidin-1-yl)azetidin-1-yl)methyl)-3-fluoroazetidin-1-yl)-2-(2,6-dioxopiperidin-3-yl)-6-fluoroisoindoline-1,3-dione]: the values for the IC50 (in the series on Mino cells; in the series with SU-DHL-6 cells; in series [2]) were 61 nM, 100 nM and over 40000 nM, respectively. Besides, in series [1] (i.g. (20 mg/kg)), the area under the curve AUC(0-t) (usually exposure summed from dosing to a finite time, without extrapolation to infinity) is 3820 ± 811 ng·h/mL.
In the same order, the values of `Nc1ncnc2c1c(-c1ccc(Oc3ccccc3)cc1)nn2C1CCN(C2CN(CC3(F)CN(c4cc5c(cc4F)C(=O)N(C4CCC(=O)NC4=O)C5=O)C3)C2)CC1` (centres unmarked) [Compound 115, 5-(3-((3-(4-(4-amino-3-(4-phenoxyphenyl)-1H-pyrazolo[3,4-d]pyrimidin-1-yl)piperidin-1-yl)azetidin-1-yl)methyl)-3-fluoroazetidin-1-yl)-2-(2,6-dioxopiperidin-3-yl)-6-fluoroisoindoline-1,3-dione] are 166 nM, 133 nM, over 40000 nM and 5820 ± 2260 ng·h/mL.
Take `Nc1ncnc2c1c(-c1ccc(Oc3ccccc3)cc1)nn2C1CCN(C2CN(CC3(F)CN(c4ccc5c(c4)C(=O)N(C4CCC(=O)NC4=O)C5=O)C3)C2)CC1` (centres unmarked) [Compound 116, 5-(3-((3-(4-(4-amino-3-(4-phenoxyphenyl)-1H-pyrazolo[3,4-d]pyrimidin-1-yl)piperidin-1-yl)azetidin-1-yl)methyl)-3-fluoroazetidin-1-yl)-2-(2,6-dioxopiperidin-3-yl)isoindoline-1,3-dione]: the figures for the IC50 in the series with Mino cells and in the series on SU-DHL-6 cells were 29 nM and 52 nM, respectively. Also, in series [1] (i.g. (20 mg/kg)), the AUC(0-t) was determined as 4440 ± 544 ng·h/mL.
For `Nc1ncnc2c1c(-c1ccc(Oc3ccccc3)cc1)nn2C1CCN(C2CN(CC3(F)CCN(c4cc5c(cc4F)C(=O)N(C4CCC(=O)NC4=O)C5=O)CC3)C2)CC1` (centres unmarked) [Compound 117, 5-(4-((3-(4-(4-amino-3-(4-phenoxyphenyl)-1H-pyrazolo[3,4-d]pyrimidin-1-yl)piperidin-1-yl)azetidin-1-yl)methyl)-4-fluoropiperidin-1-yl)-2-(2,6-dioxopiperidin-3-yl)-6-fluoroisoindoline-1,3-dione], the results for the IC50 with Mino cells and in the series on SU-DHL-6 cells were 119 nM and 98 nM, respectively. Besides, in series [1] (i.g. (20 mg/kg)), the exposure AUC(0-t) stood at 2280 ± 64 ng·h/mL.
As to `Nc1ncnc2c1c(-c1ccc(Oc3ccccc3)cc1)nn2C1CCN(C2CN(CC3(F)CCN(c4ccc5c(c4)C(=O)N(C4CCC(=O)NC4=O)C5=O)CC3)C2)CC1` (centres unmarked) [Compound 118, 5-(4-((3-(4-(4-amino-3-(4-phenoxyphenyl)-1H-pyrazolo[3,4-d]pyrimidin-1-yl)piperidin-1-yl)azetidin-1-yl)methyl)-4-fluoropiperidin-1-yl)-2-(2,6-dioxopiperidin-3-yl)isoindoline-1,3-dione], the results for the half-maximal inhibitory concentration (IC50) in the series on Mino cells and with SU-DHL-6 cells were 52 nM and 50 nM, respectively. Further, the area under the curve AUC(0-t) in series [1] (i.g. (20 mg/kg)) is 2080 ± 985 ng·h/mL.
For `Nc1ncnc2c1c(-c1ccc(Oc3ccccc3)cc1)nn2C1CCN(C2CN(CC3CCN(c4ccc5c(c4)C(=O)N(C4CCC(=O)NC4=O)C5=O)CC3)C2)CC1` (centres unmarked) [Trifluoroacetate of compound 98, 5-(4-((3-(4-(4-amino-3-(4-phenoxyphenyl)-1H-pyrazolo[3,4-d]pyrimidin-1-yl)piperidin-1-yl)azetidin-1-yl)methyl)piperidin-1-yl)-2-(2,6-dioxopiperidin-3-yl)isoindoline-1,3-dione] the same measures were 20 nM, 12 nM and 347 ± 55 ng·h/mL.
`Nc1ncnc2c1c(-c1ccc(Oc3ccccc3)cc1)nn2C1CCN(C2CN(CC3CCN(c4ccc5c(c4)C(=O)N(C4CCC(=O)NC4=O)C5=O)C3)C2)CC1` (centres unmarked) [Trifluoroacetate of compound 99, 5-(3-((3-(4-(4-amino-3-(4-phenoxyphenyl)-1H-pyrazolo[3,4-d]pyrimidin-1-yl)piperidin-1-yl)azetidin-1-yl)methyl)pyrrolidine-1-yl)-2-(2,6-dioxopiperidin-3-yl)isoindoline-1,3-dione]: the IC50 (usually the midpoint of a concentration-inhibition curve) was 21 nM in the series with Mino cells and 24 nM in the series on SU-DHL-6 cells. The same molecule had an AUC(0-t) in series [1] (i.g. (5 mg/kg)) of 504 ± 131 ng·h/mL.
